# “Also recorded” adds a separate entry of the source. Ends that are not written are not given here.
# Legend:
# [1] = system: microorganisms; assay: Peptide activities: targeting/binding, antimicrobial, growth or phenotype altering (Tables 7, 8); format: cell-based; conditions: peptides having multiple activities
# [2] = system: microorganisms; assay: Targeting peptide binding to target microorganisms (Tables 3, 10, 12); conditions: microorganism(s) the targeting peptide binds; binding in aqueous buffers varied with peptide solubility, preferably 1x PBS
# [3] = system: S. pneumoniae; assay: MIC test / antimicrobial activity, S. pneumoniae; format: cell-based, Streptococcus pneumoniae
# Description: (§1) The active AMPs, STAMPs and the like can be identified and/or validated using an in vitro screening assay.
# (§2) It will be appreciated that other assays as are well known in the art or that will become apparent to those having skill in the art upon review of this disclosure may also be used to identify active AMPs. Such assays include, for example, the assay described in Lehrer et al. (1988) J. Immunol.
# (§3) Peptides were evaluated for basic antimicrobial activity by broth microdilution, as described previously (Eckert et al. (2006) Antimicrob Agents Chemother., 50: 3651-3657; Eckert et al. (2006) Antimicrob Agents Chemother., 50: 1480-1488). Briefly, ˜1×10^5 cfu/mL bacteria were diluted in TH (S. mutans), or Mueller-Hinton (MH) broth (all other organisms) and distributed to 96-well plates. Serially-diluted (2-fold) peptides were then added and the plates incubated at 37° C. for 18-24 h. […] All experiments were conducted 10 times.
# [4] = system: microorganisms; assay: Morphology, biofilm and growth disrupting peptides (Table 5); format: cell-based; design: key: A: Peptide aggregates; B: Less hyphal formation; Clumps; Diffuse clumps and small polyps; F: Diffuse growth; H: Thin; I: Growth inhibition; Microcolony formation; Rippled; Small polyps; Thick; W: Halo formation on top, microlonies on bottom
# Description: In certain embodiments peptides that induce alterations in phenotype or other biological activities can also be used as antimicrobial effector moieties.
# [5] = system: S. mutans; assay: MIC test (broth microdilution) / antimicrobial activity, S. mutans; format: cell-based, Streptococcus mutans
# Description: as §1, §2, §3
# [6] = system: B. subtilis; assay: MIC test / antimicrobial activity, B. subtilis; format: cell-based, Bacillus subtilis; conditions: B. subtilis
# Description: as §1, §2, §3
# [7] = system: MRSA; assay: MIC test / antimicrobial activity, MRSA; format: cell-based, Methicillin-resistant Staphylococcus aureus
# Description: as §1, §2, §3
# [8] = system: S. epidermidis; assay: MIC test (broth microdilution) / antimicrobial activity, S. epidermidis; format: cell-based, Staphylococcus epidermidis; conditions: S. epidermidis
# Description: as §1, §2, §3
# [9] = system: A. niger; assay: MIC test / antimicrobial activity, A. niger; format: cell-based, Aspergillus niger
# Description: as §1, §2, §3
# [10] = system: T. rubrum; assay: MIC test / antimicrobial activity, T. rubrum; format: cell-based, Trichophyton rubrum
# Description: as §1, §2, §3
# [11] = system: A. baumannii; assay: MIC test / antimicrobial activity, A. baumannii; format: cell-based, Acinetobacter baumannii
# Description: as §1, §2, §3
substance,measurement,setting,value
ASKQASKQASKQASKQASKQASRSLKNHLL [PF-523],Activities,[1],B M
same,Target(s),[2],S. epidermidis; also recorded: M. luteus; also recorded: C. albicans; also recorded: S. pneumoniae; also recorded: C. jeikeium; also recorded: C. jejuni
same,Organism MIC (μM),[3],"S. pneumoniae, 50 μM"
CGKLLEQKNFFLKTR [PF-521],"Organism, effect",[4]; S. pneumoniae,S. pneumoniae (H)
same,Activities,[1],G B M
same,Target(s),[2],S. epidermidis; also recorded: E. coli; also recorded: P. aeruginosa; also recorded: S. pneumoniae; also recorded: E. faecalis
same,Organism MIC (μM),[3],"S. pneumoniae, 50 μM"
FIRKFLKKWLL [K-9],Organism MIC (μM),[5],"S. mutans, 4 μM"
FLKFLKKFFKKLKY [K-20],Organism MIC (μM),[5],"S. mutans, 8 μM"
FQKPFTGEEVEDFQDDDEIPTII [PF-437],"Organism, effect",[4]; S. pneumoniae,S. pneumoniae (I)
same,Activities,[1],G M
same,Organism MIC (μM),[3],"S. pneumoniae, 50 μM"
FTRKFLKFLHL [K-17],Organism MIC (μM),[5],"S. mutans, 8 μM"
GIFKKFVKILYKVQKL [K-22],Organism MIC (μM),[5],"S. mutans, 8 μM"
GILKKLFTKVF [K-13],Organism MIC (μM),[5],"S. mutans, 16 μM"
GIVLIGLKLIPLLANVLR [PF-322],"Organism, effect: B. subtilis",[4]; B. subtilis,B. subtilis (H)
same,"Organism, effect: S. epidermidis",[4]; S. epidermidis,S. epidermidis (C)
same,Activities,[1],G M
same,Organism MIC (μM),[6],"B. subtilis, 50 μM"
GLGRVIGRLIKQIIWRR [K-1],Organism MIC (μM),[5],"S. mutans, 25 μM"
GWLKMFKKIIGKFGKF [K-21],Organism MIC (μM),[5],"S. mutans, 8 μM"
KFQGEFTNIGQSYIVSASHMSTSLNTGK [PF-583],"Organism, effect",[4]; MRSA,MRSA (I)
same,"Organism, effect",[4]; S. epidermidis,S. epidermidis (I)
same,"Organism, effect",[4]; S. mutans,S. mutans (F)
same,"Organism, effect",[4]; S. pneumoniae,S. pneumoniae (D)
same,Activities,[1],G B M
same,Organism MIC (μM),[7],"MRSA, 50 μM"
same,Organism MIC (μM),[8],"S. epidermidis, 50 μM"
KFSDQIDKGQDALKDKLGDL [PF-525],"Organism, effect",[4]; S. pneumoniae,S. pneumoniae (H)
same,Activities,[1],G M
same,Organism MIC (μM),[3],"S. pneumoniae, 50 μM"
same,Organism MIC (μM),[9],"A. niger, 50 μM"
KILKFLFKKVF [K-8],Organism MIC (μM),[5],"S. mutans, 4 μM"
KILKFLFKQVF [K-11],Organism MIC (μM),[5],"S. mutans, 4 μM"
KILKKLFKFVF [K-12],Organism MIC (μM),[5],"S. mutans, 8 μM"
KKFKKFKVLKIL [K-18],Organism MIC (μM),[5],"S. mutans, 16 μM"
KLFKFLRKHLL [K-10],Organism MIC (μM),[5],"S. mutans, 4 μM"
LGLTAGVAYAAQPTNQPTNQPTNQPTNQPTNQPTNQPRW-NH2 [PF-520],"Organism, effect",[4]; S. pneumoniae,S. pneumoniae (M)
same,Activities,[1],G B M
same,Organism MIC (μM),[3],"S. pneumoniae, 50 μM"
LLKLLKLKKLKF [K-19],Organism MIC (μM),[5],"S. mutans, 16 μM"
LRKFLHKLF [K-14],Organism MIC (μM),[5],"S. mutans, 8 μM"
LRKNLRWLF [K-15],Organism MIC (μM),[5],"S. mutans, 4 μM"
LSEMERRRLRKRA-NH2 [PF-529],"Organism, effect",[4]; S. pneumoniae,S. pneumoniae (H)
same,Activities,[1],G B M
same,Target(s),[2],S. epidermidis and E. coli and C. albicans and MRSA and S. pneumoniae and E. faecalis and C. jeikeium
same,Organism MIC (μM),[3],"S. pneumoniae, 50 μM"
same,Organism MIC (μM),[9],"A. niger, 50 μM"
LVLRICTDLFTFIKWTIKQRKS [PF-497],Activities,[1],B M
same,Target(s),[2],S. mutans; also recorded: B. subtilis; also recorded: E. coli
same,Organism MIC (μM),[6],"B. subtilis, 50 μM"
MIRIRSPTKKKLNRNSISDWKSNTSGRFFY [PF-283],"Organism, effect: B. subtilis",[4]; B. subtilis,B. subtilis (H)
same,"Organism, effect: S. epidermidis",[4]; S. epidermidis,S. epidermidis (H)
same,Organism MIC (μM),[10],"T. rubrum, 50 μM"
same,Activities,[1],G B M
same,Target(s),[2],B. subtilis; also recorded: B. fragilis; also recorded: C. difficile
same,Organism MIC (μM),[8],"S. epidermidis, 50 μM"
same,Organism MIC (μM),[6],"B. subtilis, 50 μM"
NYAVVSHT [PF-209],"Organism, effect: MRSA",[4]; MRSA,MRSA (I)
same,"Organism, effect: P. aeruginosa",[4],P. aeruginosa (H)
same,"Organism, effect: S. epidermidis",[4]; S. epidermidis,S. epidermidis (C)
same,Activities,[1],G B M
same,Organism MIC (μM),[7],"MRSA, 50 μM"
same,Target(s),[2],C. albicans; also recorded: C. jeikeium; also recorded: C. jejuni
NYRLVNAIFSKIFKKKFIKF [K-7],Organism MIC (μM),[5],"S. mutans, 12.5 μM"
PDAPRTCYHKPILAALSRIVVTDR [PF-524],"Organism, effect",[4]; E. coli,E. coli (M)
same,"Organism, effect",[4]; E. faecalis,E. faecalis (C)
same,"Organism, effect",[4]; MRSA,MRSA (C)
same,"Organism, effect",[4]; S. pneumoniae,S. pneumoniae (M)
same,Activities,[1],G B M
same,Target(s),[2],S. epidermidis and E. coli and P. aeruginosa and C. albicans and MRSA and S. pneumoniae and E. faecalis and C. jeikeium
same,Organism MIC (μM),[3],"S. pneumoniae, 50 μM"
RESKLIAMADMIRRRI-NH2 [PF-545],"Organism, effect",[4]; B. subtilis,B. subtilis (I)
same,"Organism, effect",[4]; C. albicans,C. albicans (B)
same,"Organism, effect",[4]; C. jeikeium,C. jeikeium (H)
same,"Organism, effect",[4]; E. faecalis,E. faecalis (H)
same,Activities,[1],G B M
same,Organism MIC (μM),[7],"MRSA, 50 μM"
same,Target(s),[2],S. epidermidis; also recorded: E. coli; also recorded: P. aeruginosa; also recorded: S. pneumoniae; also recorded: E. faecalis; also recorded: C. jeikeium
same,Organism MIC (μM),[6],"B. subtilis, 25 μM"
same,Organism MIC (μM),[9],"A. niger, 50 μM"
RRGCTERLRRMARRNAWDLYAEHFY [PF-148],"Organism, effect: B. subtilis",[4]; B. subtilis,B. subtilis (I)
same,"Organism, effect: C. albicans",[4]; C. albicans,C. albicans (B)
same,"Organism, effect: C. jeikeium",[4]; C. jeikeium,C. jeikeium (H)
same,"Organism, effect: C. jejuni",[4]; C. jejuni,C. jejuni (H)
same,"Organism, effect: M. luteus",[4]; M. luteus,M. luteus (A)
same,"Organism, effect: MRSA",[4]; MRSA,MRSA (C)
same,"Organism, effect: S. epidermidis",[4]; S. epidermidis,S. epidermidis (D)
same,"Organism, effect: S. pneumoniae",[4]; S. pneumoniae,S. pneumoniae (R)
same,Activities,[1],G B M
same,Organism MIC (μM),[6],"B. subtilis, 50 μM"
same,Organism MIC (μM),[9],"A. niger, 50 μM"
SFMPEIQKNTIPTQMK [PF-512],"Organism, effect",[4]; S. pneumoniae,S. pneumoniae (H)
same,Activities,[1],G B M
same,Target(s),[2],S. pneumoniae; also recorded: C. jeikeium
same,Organism MIC (μM),[3],"S. pneumoniae, 50 μM"
SKFKVLRKIIIKEYKGELMLSIQKQR [PF-530],"Organism, effect",[4]; E. coli,E. coli (R)
same,"Organism, effect",[4]; E. faecalis,E. faecalis (C)
same,"Organism, effect",[4]; MRSA,MRSA (C)
same,"Organism, effect",[4]; S. epidermidis,S. epidermidis (H)
same,"Organism, effect",[4]; S. pneumoniae,S. pneumoniae (R)
same,Organism MIC (μM),[11],"A. baumannii, 25 μM"
same,Activities,[1],G M
SLQSQLGPCLHDQRH [PF-448],"Organism, effect",[4]; S. pneumoniae,S. pneumoniae (I)
same,Activities,[1],G B M
same,Target(s),[2],S. epidermidis; also recorded: M. luteus; also recorded: P. mirabilis; also recorded: E. coli; also recorded: S. pneumoniae; also recorded: E. faecalis; also recorded: C. jeikeium; also recorded: C. jejuni
same,Organism MIC (μM),[3],"S. pneumoniae, 50 μM"
same,Organism MIC (μM),[9],"A. niger, 25 μM"
VLPFPAIPLSRRRACVAAPRPRSRQRAS [PF-168],"Organism, effect: MRSA",[4]; MRSA,MRSA (I)
same,"Organism, effect: P. aeruginosa",[4],P. aeruginosa (H)
same,Organism MIC (μM),[10],"T. rubrum, 50 μM"
same,Activities,[1],G B M
same,Organism MIC (μM),[7],"MRSA, 50 μM"
same,Target(s),[2],S. epidermidis and M. luteus and E. coli and C. albicans and MRSA and C. jeikeium and C. jejuni
same,Organism MIC (μM),[9],"A. niger, 50 μM"
VMQSLYVKPPLILVTKLAQQN [PF-511],"Organism, effect",[4]; S. pneumoniae,S. pneumoniae (H)
same,Activities,[1],G B M
same,Target(s),[2],E. coli; also recorded: P. aeruginosa; also recorded: S. pneumoniae; also recorded: C. jeikeium
same,Organism MIC (μM),[3],"S. pneumoniae, 50 μM"
VYRKRKSILKIYAKLKGWH [K-2],Organism MIC (μM),[5],"S. mutans, 12.5 μM"
VYSFLYVLVIVRKLLSMKKRIERL [PF-499],Activities,[1],B M
same,Target(s),[2],S. mutans; also recorded: E. coli
same,Organism MIC (μM),[6],"B. subtilis, 50 μM"
WSRVPGHSDTGWKVWHRW-NH2 [PF-547],"Organism, effect",[4]; B. subtilis,B. subtilis (I)
same,"Organism, effect",[4]; E. faecalis,E. faecalis (R)
same,"Organism, effect",[4]; MRSA,MRSA (M)
same,"Organism, effect",[4]; S. epidermidis,S. epidermidis (R)
same,Organism MIC (μM),[10],"T. rubrum, 25 μM"
same,Activities,[1],G B M
same,Target(s),[2],S. epidermidis and E. coli and P. aeruginosa and C. albicans and MRSA and S. pneumoniae and E. faecalis
same,Organism MIC (μM),[6],"B. subtilis, 25 μM"
same,Organism MIC (μM),[5],"S. mutans, 12.5 μM"

# Reference: patent US20110039763A1, “TARGETED ANTIMICROBIAL MOIETIES” (C3 JIAN, INC., priority 2009, published 2011)
